This assay has as its system male White rabbits. Nature of the assay: Test of cholesterol-lowering effect in rabbits fed 1% cholesterol diet. In kind it is in vivo. The method, then: The cholesterol-lowering effect of Statan A was compared against a control in male White rabbits (purchased from Hvidesten, DK). The rabbits were housed in individual stainless steel cages with free access to water. The rabbits were divided into groups with similar baseline values of plasma cholesterol, which groups received: • 1) 5 mg/day PD498 (n=2)(Statan A), • 2) control group (n=4).
The rabbits were treated for 3 days. All animals were fed daily with 100 g of a standard rabbit diet (Altromin, Lage, Germany) containing 1% cholesterol. All test drugs were added to the diet. Remaining food were weighed.
Blood samples for cholesterol determination were drawn at baseline and at the three following days. Blood samples were taken from the marginal ear vein and the cholesterol determination was done the same day by enzymatic […] methods, using a commercially available kit (CHOD-PAP, Roche), on a COBAS MIRA auto-analyzer (Roche, Basle, CH).
Ten kg 1% cholesterol chow: 100 g cholesterol is dissolved in 500 g corn oil by heating to 40° C. […]

These results are taken from US7304091B2, “Statin-like compounds” (Myco TeO A/S, priority 2001, dated 2007).

As to `Cc1ccc2ccccc2c1CC[C@@H]1C[C@@H](O)CC(=O)O1` [solistatin], for the setting “rabbits, same method as Example 13”, the cholesterol-lowering effect entry is “had cholesterol-lowering effect”. As for `Cc1ccc2cccc(O)c2c1CCC1CC(O)CC(=O)O1` (centres unmarked) [Statan A], the “Total plasma cholesterol levels compared to the control group” value (male White rabbits, 5 mg/day in 1% cholesterol diet, treated for 3 days, blood at baseline and three following days, FIG. 2) is “consistently lower”.
